Common to all, as to type: in vivo
Assay [1] concerns Rhipicephalus (Boophilus) microplus larvae (strain Parkhurst, resistant against synthetic pyrethroids). As to the kind of experiment: Rhipicephalus (Boophilus) microplus in-vitro contact test, larval cattle tick. The following applies: Rhipicephalus microplus; 1 μg/cm^2 (=100 g/ha), after 48 hours; read-out: efficacy (larvae dead or moribund). The procedure: Rhipicephalus (Boophilus) Microplus—In-Vitro Contact Tests Larval Cattle Tick (Strain Parkhurst, Resistant Against Synthetic Pyrethroids
(§1) 9 mg compound is solved in 1 mL acetone and diluted with acetone to the desired concentration. 250 μL of the test solution is filled in 25 mL glass test tubes and homogeneously distributed on the inner walls by rotation and tilting on a shaking device (2 h at 30 rpm). With a compound concentration of 900 ppm, an inner surface of 44.7 cm^2 and a homogeneous distribution, a dose of 5 μg/cm^2 is achieved.
After the solvent has evaporated, each test tube is filled with 20-50 cattle tick larvae (Rhipicephalus microplus), closed with a perforated lid and incubated in a horizontal position at 85% relative humidity and 27° C. in an incubator. After 48 hours efficacy is determined. The larvae are patted on the ground of the tubes and negative geotactic behavior is recorded.

Assay [2] concerns green peach aphid (Myzus persicae). As to the kind of experiment: Myzus persicae spray test (MYZUPE). The conditions noted are these: 120 h; for mortality at 100 g/ha: in Brassica rapa, foliar. The procedure:
Myzus persicae—Spray Test
(§2) Solvent: 78.0 parts by weight acetone • 1.5 parts by weight dimethylformamide
(§3) Emulsifier: alkylarylpolyglycol ether
(§4) To produce a suitable preparation of active compound, 1 part by weight of active compound is mixed with the stated amount of solvents and is diluted with water, containing an emulsifier concentration of 1000 ppm, to the desired concentration. Further test concentrations are prepared by dilution with emulsifier containing water.
Chinese cabbage (Brassica pekinensis) leaf disks infected with all instars of the green peach aphid (Myzus persicae), are sprayed with a preparation of the active ingredient of the desired concentration.
After 5 days mortality in % is determined. 100% means all aphids have been killed and 0% means none of the aphids have been killed.
Myzus persicae—Spray Test (MYZUPE
After the specified period of time, mortality in % is determined. 100% means all aphids have been killed and 0% means none of the aphids have been killed.

For assay [3], the system named is adult unfed cat fleas (Ctenocephalides felis). As to the kind of experiment: Ctenocephalides felis oral test. The conditions noted are these: 48 h, 100 ppm in citrated cattle blood, after 2 days. The method, then: Ctenocephalides felis—Oral Test
(§5) Solvent: Dimethyl Sulfoxide
To produce a suitable preparation of active compound, 10 mg of active compound are dissolved in 0.5 mL solvent, and the concentrate is diluted with citrated cattle blood to the desired concentration.
Approximately 20 adult unfed cat fleas (Ctenocephalides felis) are placed in a flea chamber whose top and bottom is covered with gauze. A chamber whose bottom is sealed with parafilm, is filled with the blood-compound solution and placed on top of the flea chamber, so that the fleas can suck the blood. The blood chamber is heated to 37° C. whereas the flea chamber is kept at room temperature.
After 2 days mortality in % is determined. 100% means all the fleas have been killed; 0% means none of the fleas have been killed.

The subject of assay [4] is adult brown dog ticks (Rhipicephalus sanguineus). As to the kind of experiment: Rhipicephalus sanguineus in-vitro contact test, adult brown dog ticks. The conditions noted are these: Rhipicephalus sanguineus; 1 μg/cm^2 (=100 g/ha), after 48 hours; read-out: efficacy (ticks dead or moribund). The procedure: Rhipicephalus sanguineus—In-Vitro Contact Tests with Adult Brown Dog Ticks
as §1
After the solvent has evaporated, each test tube is filled with 5-10 adult brown dog ticks (Rhipicephalus sanguineus), closed with a perforated lid and incubated in a lying position at room temperature and relative humidity. After 48 hours efficacy is determined. The ticks are patted on the ground of the tubes and are incubated on a heating plate at 45-50° C. for at most 5 minutes. Immotile or uncoordinated moving ticks, which are not able to escape the heat by climbing upwards, are marked as dead or moribund.
An efficacy of 100% means all ticks are dead or moribund; 0% means no ticks are dead or moribund.

For assay [5], the system named is adult engorged female ticks (Rhipicephalus microplus). As to the kind of experiment: Rhipicephalus (Boophilus) microplus injection test. The conditions noted are these: 4 μg/tick, after 7 days. The method, then:
Rhipicephalus (Boophilus) Microplus—Injection Test
as §5
To produce a suitable preparation of active compound, 10 mg of active compound are dissolved in 0.5 mL solvent, and the concentrate is diluted with solvent to the desired concentration.
Five adult engorged female ticks (Rhipicephalus microplus) are injected with 1 μL compound solution into the abdomen. The ticks are transferred into replica plates and incubated in a climate chamber.
After 7 days egg deposition of fertile eggs is monitored. Eggs where fertility is not visible are stored in a climate chamber till hatching after about 42 days. An efficacy of 100% means all eggs are infertile; 0% means all eggs are fertile.

Assay [6] has as its system adult cat fleas (Ctenocephalides felis). As to the kind of experiment: Ctenocephalides felis in-vitro contact test, adult cat flea. The conditions noted are these: Ctenocephalides felis; 1 μg/cm^2 (=100 g/ha), after 48 hours; read-out: efficacy (fleas dead or moribund). The procedure:
Ctenocephalides Felis—In-Vitro Contact Tests Adult Cat Flea
as §1
After the solvent has evaporated, each test tube is filled with 5-10 adult cat fleas (Ctenocephalides felis), closed with a perforated lid and incubated in a lying position at room temperature and relative humidity. After 48 hours efficacy is determined. The fleas are patted on the ground of the tubes and are incubated on a heating plate at 45-50° C. for at most 5 minutes. Immotile or uncoordinated moving fleas, which are not able to escape the heat by climbing upwards, are marked as dead or moribund.
An efficacy of 100% means all fleas are dead or moribund; 0% means no fleas are dead or moribund.

Assay [7] relates to larvae of the banded cucumber beetle (Diabrotica balteata). As to the kind of experiment: Diabrotica balteata spray test. The following applies: Diabrotica balteata, 168 h; 100 g/ha (=32 μg/well), wheat seeds, after 7 days; read-out: efficacy (seedlings grown). The procedure:
Diabrotica balteata—Spray Test
(§6) Solvent: 78.0 parts by weight of acetone • • 1.5 parts by weight of dimethylformamide
as §3
(§7) To produce a suitable preparation of active compound, 1 part by weight of active compound is mixed with the stated amount of solvent, and the concentrate is diluted with water, containing an emulsifier concentration of 1000 ppm, to the desired concentration. Further test concentrations are prepared by dilution with emulsifier containing water.
Soaked wheat seeds (Triticum aestivum) are placed in a multiple well plate filled with agar and some water and are incubated for 1 day to germinate (5 seeds per well). The germinated wheat seeds are sprayed with a test solution containing the desired concentration of the active ingredient. Afterwards each unit is infected with 10-20 larvae of the banded cucumber beetle (Diabrotica balteata).
After 7 days efficacy in % is determined. 100% means all the seedlings have grown up like in the untreated, uninfected control; 0% means none of the seedlings have grown.

The test system of assay [8] is fall armyworm larvae (Spodoptera frugiperda). As to the kind of experiment: Spodoptera frugiperda spray test (SPODFR). The conditions noted are these: in Zea mays, 168 h. The procedure:
Spodoptera frugiperda—Spray Test
as §2, §3, §4
Maize (Zea mays) leaf sections are sprayed with a preparation of the active ingredient of the desired concentration. Once dry, the leaf sections are infested with fall armyworm larvae (Spodoptera frugiperda).
After 7 days mortality in % is determined. 100% means all caterpillars have been killed and 0% means none of the caterpillars have been killed.
Spodoptera frugiperda—Spray Test (SPODFR
After the specified period of time, mortality in % is determined. 100% means all caterpillars have been killed and 0% means none of the caterpillars have been killed.

Assay [9] concerns brown planthopper (Nilaparvata lugens). As to the kind of experiment: Nilaparvata lugens spray test. The following applies: Nilaparvata lugens, in Oryza sativa, 96 h. The method, then:
Nilaparvata lugens—Spray Test
as §6, §3, §4
Rice plants (Oryza sativa) are sprayed with a preparation of the active ingredient of the desired concentration and the plants are infested with the brown planthopper (Nilaparvata lugens).
After 4 days mortality in % is determined. 100% means all planthoppers have been killed and 0% means none of the planthoppers have been killed.

Assay [10] deals with larvae of the southern green stink bug (Nezara viridula). As to the kind of experiment: Nezara viridula spray test. The following applies: Nezara viridula, in Hordeum vulgare, 96 h. The method, then:
Nezara viridula—Spray Test
as §6, §3, §7
Barley plants (Hordeum vulgare) are sprayed with a test solution containing the desired concentration of the active ingredient and are infested with larvae of the southern green stink bug (Nezara viridula).
After 4 days mortality in % is determined. 100% means all the stink bugs have been killed; 0% means none of the stink bugs have been killed.

Usually mortality stands for the percentage killed. Read a low mortality as more survivors. For `C[C@H](NC(=O)c1cc(OC(F)(F)F)cc(C2CC2)c1)c1ncnn1-c1cnc(C(=O)N(C)C2CC2)cn1` [Example I-003], the pest or weed control at 1 µg/cm2 in assay [1] and in assay [6] was 100% in each case. In addition, the mortality at 100 g/ha in [2] came to 90%; in [8] it was 100%. Moreover, the mortality at 100 ppm in assay [3] was found to be 100%. Also, the pest or weed control at 1 µg/cm2, 100 g/ha in assay [4] amounted to 80%. Moreover, in assay [5], the “efficacy (infertile eggs)” value was found to be 100%. Moreover, in [7], the pest or weed control at 32 µg/disc, 100 g/ha came out at 100%.
With `C[C@H](NC(=O)c1cc(C(F)(F)F)cc(C(F)(F)F)c1)c1ncnn1-c1cnc(C(=O)N(C)C)cn1` [Example I-005], the pest or weed control at 1 µg/cm2 in assay [1] and in assay [6] was 100% throughout. Besides, the mortality at 100 g/ha in assay [2] and in assay [8] was 100% throughout. In addition, in assay [3], the mortality at 100 ppm was found to be 100%. The pest or weed control at 1 µg/cm2, 100 g/ha in [4] came out at 100%. In addition, in assay [5], the “efficacy (infertile eggs)” value stood at 100%. For the same molecule, the mortality at 500 g/ha in assay [9] turned out to be 100%.
For `CCN(C)C(=O)c1cnc(-n2ncnc2[C@H](C)NC(=O)c2cc(C(F)(F)F)cc(C(F)(F)F)c2)cn1` [Example I-006], the pest or weed control at 1 µg/cm2 in [1] and in [6] was 100% throughout. In addition, the mortality at 100 g/ha in assay [2] and in assay [8] was 100% each time. This molecule also showed a mortality at 100 ppm in [3] of 100%. Moreover, the pest or weed control at 1 µg/cm2, 100 g/ha in assay [4] worked out at 100%. Besides, the “efficacy (infertile eggs)” value in [5] turned out to be 100%. The same molecule had a mortality at 500 g/ha in assay [9] of 100%.
As for `Cc1nc([C@H](C)NC(=O)c2cc(C(F)(F)F)cc(C(F)(F)F)c2)n(-c2cnc(C(N)=O)cn2)n1` [Example I-012], the pest or weed control at 1 µg/cm2 in assay [1] came out at 100%. Also, the mortality at 100 g/ha in assay [2] and in assay [8] was 100% each time. For the same molecule, the pest or weed control at 1 µg/cm2, 100 g/ha in assay [4] is 100%. Also, the mortality at 500 g/ha in assay [10] and in [9] was 100% in each case.
For the molecule `Cc1nc([C@H](C)NC(=O)c2cc(C(F)(F)F)cc(C(F)(F)F)c2)n(-c2cnc(C(=O)NC3CC3)cn2)n1` [Example I-014], the pest or weed control at 1 µg/cm2 in assay [1] came out at 100%. Further, the mortality at 100 g/ha amounted to 90% in [2] and 100% in assay [8]. Further, the pest or weed control at 1 µg/cm2, 100 g/ha in [4] came to 100%. For the same molecule, the mortality at 500 g/ha worked out at 90% in assay [10] and 100% in assay [9].
Turning to `Cc1nc([C@H](C)NC(=O)c2cc(C(F)(F)F)cc(C(F)(F)F)c2)n(-c2cnc(C(=O)N(C)C)cn2)n1` [Example I-015], the pest or weed control at 1 µg/cm2 in assay [1] and in assay [6] was 100% each time. In addition, the mortality at 100 g/ha in [2] was 90%; in assay [8], 100%. Further, the pest or weed control at 1 µg/cm2, 100 g/ha in assay [4] was found to be 100%. Moreover, the mortality at 500 g/ha in assay [10] and in assay [9] was 100% each time.
Turning to `CCN(C)C(=O)c1cnc(-n2nc(C)nc2[C@H](C)NC(=O)c2cc(C(F)(F)F)cc(C(F)(F)F)c2)cn1` [Example I-016], the pest or weed control at 1 µg/cm2 in [1] and in assay [6] was 100% each time. Moreover, the mortality at 100 g/ha in [2] and in assay [8] was 100% throughout. The pest or weed control at 1 µg/cm2, 100 g/ha in assay [4] stood at 100%. In addition, the mortality at 500 g/ha in assay [10] and in [9] was 100% each time.
`C[C@H](NC(=O)c1cc(OC(F)(F)F)cc(S(C)(=O)=O)c1)c1ncnn1-c1cnc(C(=O)N(C)C)cn1` [Example I-017]: the pest or weed control at 1 µg/cm2 in [1] and in [6] was 100% throughout. Moreover, the Emax at 4 g/ha in assay [2] (MYZUPE, 4 g ai/ha, 5 dat, read-out: % Efficacy) was 70%. In [2] (MYZUPE, 20 g ai/ha, 5 dat, read-out: % Efficacy), the Emax at 20 g/ha stood at 90%. Besides, in [2] (MYZUPE, 100 g ai/ha, 5 dat, read-out: % Efficacy), the Emax at 100 g/ha is 100%. This molecule yielded a mortality at 100 g/ha in assay [2] of 100%. The pest or weed control at 1 µg/cm2, 100 g/ha in [4] came to 100%. For the same molecule, the mortality at 500 g/ha in [10] and in assay [9] was 100% each time. The pest or weed control at 32 µg/disc, 100 g/ha in assay [7] turned out to be 100%.
Take `Cc1nc([C@H](C)NC(=O)c2cc(OC(F)(F)F)cc(C3CC3)c2)n(-c2cnc(C(=O)N(C)C)cn2)n1` [Example I-047, 5-(5-{(1S)-1-[3-Cyclopropyl-5-(trifluoromethoxy)benzamido]ethyl}-3-methyl-1H-1,2,4-triazol-1-yl)-N,N-dimethylpyrazine-2-carboxamide]: the pest or weed control at 1 µg/cm2 in [1] and in assay [6] was 100% each time. Also, the mortality at 100 g/ha in [2] worked out at 90%; in assay [8], 100%. In assay [4], the pest or weed control at 1 µg/cm2, 100 g/ha was determined as 100%. The mortality at 500 g/ha in [10] and in assay [9] was 100% in each case. In [7], the pest or weed control at 32 µg/disc, 100 g/ha amounted to 80%.
